Data: patent US20250339409A1, “USES OF PAN BET INHIBITORS” (VYNE THERAPEUTICS INC., priority 2021, published 2025)

System: imiquimod-induced psoriasis
Assay: Imiquimod-induced psoriasis (Th17 inflammation) model in mice, topical treatment once daily D7-D13: PASI, modified PASI, body weight, use of enrichment, TEWL
Type: in vivo
Design: key to Mean score use enrichment: 0 = no use of dental rolls to 4 = use of all 4; key to PASI Mean score values: sum of erythema, induration, peeling scores, each 0-3 (0 = none)
Details: imiquimod-induced mice
Method: Thirty-six (36) female Balb/c mice are weighed and randomly divided into 9 groups (n=4) according to body weight on D1. For mice of native group 1 and tolerance groups 8 and 9, no induction of psoriasis is performed between D1 and D13. Psoriasis is induced in groups 2 to 7 by once daily topical application for 13 days (from day 1 to day 13) of 65 mg of Aldara™ cream (5.0% imiquimod) onto the shaved and epilated back of mice. Before the first treatment, a second randomization of mice of the 6 imiquimod-induced psoriasis groups is performed according to the severity of psoriasis (PASI), and also the body weight of mice. Starting on day 7 and until day 13, 100 mg of test formulations […] and 65 mg of vehicle (groups 1 and […]) are topically administered once daily for 7 consecutive days onto the shaved back skin of mice. Several measurements are taken during treatment period from day 7 to day 14: psoriasis index (PASI), body weight, use of enrichment and mortality. At the end of treatment period, TEWL is assessed, and blood and skin samples are collected. Histological analysis of skin samples is used for microscopic scoring of psoriasis and the determination of the thickness of parakeratosis and epidermis and blood analysis is used for assessing the level of proinflammatory biomarkers (cytokines assays). The effect of treatment of psoriasis induced mice with BETi formulations at the four dose levels are compared with Dermoval® cream containing 0.05% clobetasol propionate (reference) and vehicle (positive control) and also with healthy mice treated with vehicle (negative control).
PASI scoring takes into account the following 3 parameters: the presence of erythema on the skin, induration of the skin (thickening) and peeling of the skin at the area of the induction of psoriasis.
The presence of erythema on the skin at the area of induction of psoriasis with the following scoring grid: • 0=no or no more erythema on the skin, • 1=weak erythema on the skin, • 2=moderate erythema on the skin, • 3=important erythema on the skin.
The presence of induration of the skin at the area of induction of psoriasis with the following scoring grid: • 0=no or no more induration of the skin, • 1=weak induration of the skin, • 2=moderate induration of the skin, • 3=important induration of the skin.
The presence of peeling of the skin at the area of induction of psoriasis with the following scoring grid: • 0=no or no more dryness/peeling of the skin, • 1=weak dryness/peeling of the skin, • 2=moderate dryness/peeling of the skin, • 3=important dryness/peeling of the skin.
The sum of the mean scores of these 3 parameters result in the mean PASI score.
One of the issues with a steroid is that it causes skin thinning and continues to have an effect on no longer inflamed skin and the model set up and measurements above are not designed to reflect this negative effect. Therefore, a modified PASI (mPASI) is calculated in the same the manner as mean PASI score but excludes the scoring for induration (thickening of the skin).
Mice are weighed three times during the week of D1 to D7, and then daily during the week of D7 to D13, as well as on the day D14 when they are sacrificed. It should be noted that a characteristic body weight loss of mice is observed after the start of the induction of psoriasis, mainly during the first days following it. The body weight loss can reach between 10 to 15%.
For the duration of the experiment, dental rolls are used as enrichment and placed in each cage and replaced twice. Between D1 and D7, the number of dental rolls used by animals are determined twice in the morning, and are determined daily during D7 to D14, at the time of PASI or the tolerance assessment. The use of dental rolls is scored from 0=no use of dental rolls to 4=use of the 4 dental rolls. In the case where only half of a dental roll is used, a score of 0.5 is assigned. […]

## Cn1cc(-c2cccc(O)c2Oc2ccccc2)c2cc[nH]c2c1=O [BETi1]
D 2, listed as BETI1 0.1%
  Modified PASI Mean score values: 0.50
  PASI Mean score values: 0.50
D 2, listed as BETI1 1.0%
  Modified PASI Mean score values: 1.00
  PASI Mean score values: 1.00
D 2, listed as BETi 0.001%
  Mean score use enrichment: 0.25
D 2, listed as BETi 0.01%
  Mean score use enrichment: 0.50
D 2, listed as BETi 0.1%
  Mean score use enrichment: 0.75
D 2, listed as BETi1 0.001%
  Modified PASI Mean score values: 1.00
  PASI Mean score values: 1.25
D 2, listed as BETi1 0.01%
  Modified PASI Mean score values: 0.25
  PASI Mean score values: 0.25
D 2, listed as BETi 1.0%
  Mean score use enrichment: 0.75
D 3, listed as BETI1 0.1%
  Modified PASI Mean score values: 1.25
  PASI Mean score values: 1.25
D 3, listed as BETI1 1.0%
  Modified PASI Mean score values: 1.25
  PASI Mean score values: 1.25
D 3, listed as BETi 0.001%
  Mean score use enrichment: 0.75
D 3, listed as BETi 0.01%
  Mean score use enrichment: 0.50
D 3, listed as BETi 0.1%
  Mean score use enrichment: 1.25
D 3, listed as BETi1 0.001%
  Modified PASI Mean score values: 1.00
  PASI Mean score values: 1.00
D 3, listed as BETi1 0.01%
  Modified PASI Mean score values: 1.25
  PASI Mean score values: 1.25
D 3, listed as BETi 1.0%
  Mean score use enrichment: 1.00
D 4
  Modified PASI Mean score values: 2.75
D 4, listed as BETI1 0.1%
  PASI Mean score values: 3.00
D 4, listed as BETI1 1.0%
  PASI Mean score values: 3.25
D 4, listed as BETi 0.001%
  Mean score use enrichment: 1.00
D 4, listed as BETi 0.01%
  Mean score use enrichment: 0.75
D 4, listed as BETi 0.1%
  Mean score use enrichment: 1.25
D 4, listed as BETi1 0.001%
  PASI Mean score values: 3.25
D 4, listed as BETi1 0.01%
  PASI Mean score values: 3.25
D 4, listed as BETi 1.0%
  Mean score use enrichment: 1.00
D 5, listed as BETI1 0.1%
  Modified PASI Mean score values: 4.50
  PASI Mean score values: 5.75
D 5, listed as BETI1 1.0%
  Modified PASI Mean score values: 4.00
  PASI Mean score values: 5.50
D 5, listed as BETi 0.001%
  Mean score use enrichment: 1.25
D 5, listed as BETi 0.01%
  Mean score use enrichment: 0.75
D 5, listed as BETi 0.1%
  Mean score use enrichment: 0.50
D 5, listed as BETi1 0.001%
  Modified PASI Mean score values: 4.00
  PASI Mean score values: 5.00
D 5, listed as BETi1 0.01%
  Modified PASI Mean score values: 4.00
  PASI Mean score values: 5.25
D 5, listed as BETi 1.0%
  Mean score use enrichment: 1.50
D 6, listed as BETI1 0.1%
  Modified PASI Mean score values: 4.50
  PASI Mean score values: 7.00
D 6, listed as BETI1 1.0%
  Modified PASI Mean score values: 4.75
  PASI Mean score values: 7.25
D 6, listed as BETi 0.001%
  Mean score use enrichment: 1.25
D 6, listed as BETi 0.01%
  Mean score use enrichment: 1.25
D 6, listed as BETi 0.1%
  Mean score use enrichment: 0.75
D 6, listed as BETi1 0.001%
  Modified PASI Mean score values: 4.75
  PASI Mean score values: 7.25
D 6, listed as BETi1 0.01%
  Modified PASI Mean score values: 4.75
  PASI Mean score values: 7.00
D 6, listed as BETi 1.0%
  Mean score use enrichment: 1.50
